This data set in a line: Stability of dissolution standards and dissolution samples at ambient lab conditions. The format is physicochemical. On the procedure: 40.5±4.0 mg of valbenazine ditosylate reference standard (equivalent to 22.22 mg of valbenazine free base) was added to a 250-mL volumetric flask. Diluent (0.1 N HCl dissolution media) was added to the flask, up to about 75% of the volume of the flask. The contents of the flask were mixed well, and sonicated if necessary, to provide a standard solution containing 0.0889 mg/mL valbenazine free base. The standard was stable for 17 days, stored at ambient lab conditions.
10.12±1.0 mg of valbenazine ditosylate reference standard (equivalent to 5.55 mg of valbenazine free base) was added to a 250-mL volumetric flask. Diluent (0.1N HCl dissolution media) was added to the flask, up to about 75% of the volume of the flask. […]
(§1) Dissolution was measured according to Table 8, above. After completion of the dissolution, the end temperature and observations for each vessel were recorded. […]
as §1
(§2) Dissolution was measured according to Table 9, above. After completion of the dissolution, the end temperature and observations for each vessel were recorded. […]
as §2

The structures appear in SMILES notation.

Consider `COc1cc2c(cc1OC)[C@H]1C[C@@H](OC(=O)[C@@H](N)C(C)C)[C@H](CC(C)C)CN1CC2.Cc1ccc(S(=O)(=O)O)cc1.Cc1ccc(S(=O)(=O)O)cc1` [L-Valine, (2R,3R,11bR)-1,3,4,6,7,11b-hexahydro-9,10-dimethoxy-3-(2-methylpropyl)-2H-benzo[a]quinolizin-2-yl ester, 4-methylbenzenesulfonate (1:2)], for which the “time the dissolution standard was stable” value is, setting by setting: (0.0222 mg/mL valbenazine free base in 0.1N HCl) 7 days; (0.0889 mg/mL valbenazine free base in 0.1 N HCl) 17 days.

The values are drawn from patent publication US20250000805A1, “VALBENAZINE COMPOSITIONS” (Neurocrine Biosciences, Inc., priority 2021, published 2025).
